In patent US6646137B1, “Non-peptide GnRH agents” (priority 1998, dated 2003):
Like-named read-outs stand apart in the source and are kept apart here.

Biological target: T1, human GnRH receptor (Homo sapiens, UniProt P30968)
T1 construct: The cDNA for the human GnRH receptor is cloned into the plasmid expression vector, pcDNA 3; expressed in transfected cells; host or cells: HEK 293 cells, stably transfected (pcDNA 3); membrane preparation
T1 sequence (P30968 1-328): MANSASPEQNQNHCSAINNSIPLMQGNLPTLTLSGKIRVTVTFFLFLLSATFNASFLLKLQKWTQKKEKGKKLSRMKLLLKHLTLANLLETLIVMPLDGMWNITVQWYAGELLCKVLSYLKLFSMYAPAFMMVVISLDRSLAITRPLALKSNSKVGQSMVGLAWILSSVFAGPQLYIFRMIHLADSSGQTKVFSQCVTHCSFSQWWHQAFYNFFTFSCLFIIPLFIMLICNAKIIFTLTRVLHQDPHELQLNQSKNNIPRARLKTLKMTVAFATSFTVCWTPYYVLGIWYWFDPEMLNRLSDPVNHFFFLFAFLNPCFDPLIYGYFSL
Experiment: GnRH receptor competitive radioligand binding assay (125I-GnRH-A, HEK 293 cell membranes)
Settings: compound at 10 μM
Method in brief: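 Membranes from HEK 293 cells stably expressing human GnRH receptor (0.5–1.0 mg/mL) incubated 1 h at room temperature with ~0.05–0.1 nM 125I-GnRH-A plus competitor in 50 mM HEPES pH 7.4, 1 mM EDTA, 2.5 mM MgCl2, 0.1% BSA. Bound label collected by filtration onto PEI-soaked filters and counted by scintillation.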

[1] = average of 1st and 2nd test, read-out: Average % Remaining (percent of specific binding remaining)
[2] = crude compounds, 125I-GnRH-A, lower value = higher inhibition, read-out: % Remaining 1st Test (percent of specific binding remaining)
[3] = crude compounds, 125I-GnRH-A, lower value = higher inhibition, read-out: % Remaining 2nd Test (percent of specific binding remaining)

| remaining activity at 10 µM [1] | remaining activity at 10 µM [2] | remaining activity at 10 µM [3] | SMILES |
| --- | --- | --- | --- |
| 57% | 58% | 56% | CCCCN(CCCC)c1ccc(CN(CC2CCC(CNC(=N)N)CC2)C(=O)c2ccco2)cc1 (stereo not drawn) [Compound 88] |
| 57% | 61% | 52% | CCOC(=O)C(=O)N(Cc1cc2c(cc1C)C(C)(C)CCC2(C)C)CC1CCC(CNC(=N)N)CC1 (stereo not drawn) [Compound 94] |
| 52% | 44% | 60% | Cc1cc2c(cc1CN(CC1CCC(CNC(=N)N)CC1)C(=O)c1c(C)noc1C)C(C)(C)CCC2(C)C (stereo not drawn) [Compound 96] |
| 58% | 58% | 58% | Cc1cc2c(cc1CN(CC1CCC(CNC(=N)N)CC1)C(=O)c1ccc(C#N)cc1)C(C)(C)CCC2(C)C (stereo not drawn) [Compound 98] |
| 55% | 52% | 58% | COC(=O)CCCCCC(=O)N(Cc1cc2c(cc1C)C(C)(C)CCC2(C)C)CC1CCC(CNC(=N)N)CC1 (stereo not drawn) [Compound 100] |
| 60% | 66% | 54% | Cc1cc2c(cc1CN(CC1CCC(CNC(=N)N)CC1)C(=O)Cc1ccccc1)C(C)(C)CCC2(C)C (stereo not drawn) [Compound 102] |
| 56% | 56% | 56% | Cc1cc(C(=O)N(Cc2cc3c(cc2C)C(C)(C)CCC3(C)C)CC2CCC(CNC(=N)N)CC2)n(C(C)(C)C)n1 (stereo not drawn) [Compound 105] |
| 57% | 59% | 54% | CCCCC(CC)C(=O)N(Cc1cc2c(cc1C)C(C)(C)CCC2(C)C)CC1CCC(CNC(=N)N)CC1 (stereo not drawn) [Compound 117] |
| 60% | 62% | 58% | Cc1cc2c(cc1CN(CC1CCC(CNC(=N)N)CC1)C(=O)c1cnn(-c3ccccc3)c1C(F)(F)F)C(C)(C)CCC2(C)C (stereo not drawn) [Compound 118] |
| 57% | 57% | 57% | CC(=O)O[C@@H](C)C(=O)N(Cc1cc2c(cc1C)C(C)(C)CCC2(C)C)CC1CCC(CNC(=N)N)CC1 (stereo partly drawn) [Compound 119] |
